This passage reports IC50 results from ChEMBL document CHEMBL4049402, “Synthesis and cytotoxic activity of novel tetrahydrobenzodifuran-imidazolium salt derivatives” (Bioorg Med Chem Lett, 2017).

Holding throughout (format): functional, cell-based
Assay [1] concerns HL-60. Kind of assay: Cytotoxicity against human HL60 cells after 48 hrs by MTT assay. (Formazan colour is commonly taken as a measure of viable cells.)
Assay [2] concerns SMMC-7721. Kind of assay: Cytotoxicity against human SMMC7721 cells after 48 hrs by MTT assay.
The test system of assay [3] is A549. Kind of assay: Cytotoxicity against human A549 cells after 48 hrs by MTT assay.
For assay [4], the system named is SW480. Description: Cytotoxicity against human SW480 cells after 48 hrs by MTT assay.
The test system of assay [5] is MCF7. Kind of assay: Cytotoxicity against human MCF7 cells after 48 hrs by MTT assay.

pIC50: −log10 of the molar value. Where only a bound is given, the exact number is not on record here.

What is called pIC50 is the IC50 on a negative log10 scale, so that one unit is a factor of ten. Low values mean a large IC50, high ones a small IC50.

Turning to `Brc1ccc(C[n+]2cn(Cc3c4c(cc5c3OCC5)OCC4)c3ccccc32)cc1`, the pIC50 is 5.39 in assay [1] (Homo sapiens, HL-60, 48 h); 4.75 in assay [2] (Homo sapiens, SMMC-7721, 48 h); less than 4.70 in assay [3] (Homo sapiens, A549, 48 h); 5.00 in assay [4] (Homo sapiens, SW480, 48 h); 5.27 in assay [5] (Homo sapiens, MCF7, 48 h).
The like results for `Cc1nc2ccccc2n1Cc1c2c(cc3c1OCC3)OCC2` were, in that order, less than 4.70, less than 4.70, less than 4.70, less than 4.70 and less than 4.70.
For the compound `Cc1ccc(C[n+]2cn(Cc3c4c(cc5c3OCC5)OCC4)c3cc(C)c(C)cc32)cc1`, the pIC50 in assay [1] (hl-60) is 6.42; in assay [2] (smmc-7721), 5.19; in assay [3] (a549) it was 5.39; in assay [4] (sw480), 5.20; in assay [5] (mcf7), 5.10.
Turning to `COc1ccc(C(=O)C[n+]2ccn(Cc3c4c(cc5c3OCC5)OCC4)c2)cc1`, the pIC50 in assay [1] (Homo sapiens, HL-60, 48 h) is less than 4.70; in assay [2] (Homo sapiens, SMMC-7721, 48 h) it was less than 4.70; in assay [3] (Homo sapiens, A549, 48 h) it was less than 4.70; in assay [4] (Homo sapiens, SW480, 48 h), less than 4.70; in assay [5] (Homo sapiens, MCF7, 48 h), less than 4.70.
`Cc1n(Cc2c3c(cc4c2OCC4)OCC3)c2ccccc2[n+]1Cc1ccc(Br)cc1`: the pIC50 in assay [1] (Homo sapiens, HL-60, 48 h) was 5.44; in assay [2] (Homo sapiens, SMMC-7721, 48 h), 5.13; in assay [3] (Homo sapiens, A549, 48 h) it was less than 4.70; in assay [4] (Homo sapiens, SW480, 48 h), 5.14; in assay [5] (Homo sapiens, MCF7, 48 h) it was 5.31.
Regarding `Cc1cc2c(cc1C)[n+](Cc1ccccc1Br)cn2Cc1c2c(cc3c1OCC3)OCC2`, the negative-log IC50 (pIC50) is 5.50 in assay [1] (Homo sapiens, HL-60, 48 h); 5.22 in assay [2] (Homo sapiens, SMMC-7721, 48 h); 5.06 in assay [3] (Homo sapiens, A549, 48 h); 5.10 in assay [4] (Homo sapiens, SW480, 48 h); 5.14 in assay [5] (Homo sapiens, MCF7, 48 h).
As to `O=[N+]([O-])c1ccc(C[n+]2ccn(Cc3c4c(cc5c3OCC5)OCC4)c2)cc1`, the pIC50 is less than 4.70 in assay [1] (Homo sapiens, HL-60, 48 h); less than 4.70 in assay [2] (Homo sapiens, SMMC-7721, 48 h); less than 4.70 in assay [3] (Homo sapiens, A549, 48 h); less than 4.70 in assay [4] (Homo sapiens, SW480, 48 h); less than 4.70 in assay [5] (Homo sapiens, MCF7, 48 h).
Take `Cc1n(Cc2c3c(cc4c2OCC4)OCC3)c2ccccc2[n+]1CC(=O)c1ccccc1`: the pIC50 in assay [1] (Homo sapiens, HL-60, 48 h) is less than 4.70; in assay [2] (Homo sapiens, SMMC-7721, 48 h), less than 4.70; in assay [3] (Homo sapiens, A549, 48 h), less than 4.70; in assay [4] (Homo sapiens, SW480, 48 h), less than 4.70; in assay [5] (Homo sapiens, MCF7, 48 h), less than 4.70.
For `Cc1cc2c(cc1C)[n+](Cc1ccc(Br)cc1)cn2Cc1c2c(cc3c1OCC3)OCC2` [listing 1 of 2 here], the pIC50 in assay [1] (Homo sapiens, HL-60, 48 h) is 6.31; in assay [2] (Homo sapiens, SMMC-7721, 48 h) it was 5.33; in assay [3] (Homo sapiens, A549, 48 h), 5.16; in assay [4] (Homo sapiens, SW480, 48 h), 4.99; in assay [5] (Homo sapiens, MCF7, 48 h), 5.16.
On to `Cc1cc2c(cc1C)[n+](CC(=O)c1ccc(Br)cc1)cn2Cc1c2c(cc3c1OCC3)OCC2` [listing 1 of 2 here], for which the pIC50 in assay [1] (hl-60) was 5.62; in assay [2] (smmc-7721), 4.89; in assay [3] (a549) it was 4.82; in assay [4] (sw480) it was 4.82; in assay [5] (mcf7) it was 4.75.
In the case of `O=C(C[n+]1ccn(Cc2c3c(cc4c2OCC4)OCC3)c1)c1ccc(Br)cc1`, the pIC50 in assay [1] (Homo sapiens, HL-60, 48 h) is less than 4.70; in assay [2] (Homo sapiens, SMMC-7721, 48 h) it was less than 4.70; in assay [3] (Homo sapiens, A549, 48 h), less than 4.70; in assay [4] (Homo sapiens, SW480, 48 h) it was less than 4.70; in assay [5] (Homo sapiens, MCF7, 48 h), less than 4.70.
With `Cc1cc2c(cc1C)[n+](Cc1ccc(Br)cc1)cn2Cc1c2c(cc3c1OCC3)OCC2` [listing 2 of 2 here], the pIC50 in assay [1] (hl-60) is 6.24; in assay [2] (smmc-7721), 5.18; in assay [3] (a549), 5.05; in assay [4] (sw480), 5.11; in assay [5] (mcf7), 5.09.
Consider `COc1ccc(C(=O)C[n+]2cn(Cc3c4c(cc5c3OCC5)OCC4)c3cc(C)c(C)cc32)cc1`, for which the pIC50 in assay [1] (Homo sapiens, HL-60, 48 h) is 5.57; in assay [2] (Homo sapiens, SMMC-7721, 48 h) it was 5.16; in assay [3] (Homo sapiens, A549, 48 h) it was 4.81; in assay [4] (Homo sapiens, SW480, 48 h), 4.86; in assay [5] (Homo sapiens, MCF7, 48 h) it was 5.01.
The like results for `Cc1ccc(C[n+]2c(C)n(Cc3c4c(cc5c3OCC5)OCC4)c3ccccc32)cc1` were, in that order, less than 4.70, less than 4.70, less than 4.70, less than 4.70 and less than 4.70.
The like results for `Cc1cc2c(cc1C)[n+](CC(=O)c1ccccc1)cn2Cc1c2c(cc3c1OCC3)OCC2` were, in that order, 5.25, 4.76, less than 4.70, 4.93 and 5.11.
In the case of `Cc1cc2c(cc1C)[n+](CC(=O)c1ccc(Br)cc1)cn2Cc1c2c(cc3c1OCC3)OCC2` [listing 2 of 2 here], the pIC50 in assay [1] (Homo sapiens, HL-60, 48 h) is 5.39; in assay [2] (smmc-7721), 5.21; in assay [3] (Homo sapiens, A549, 48 h) it was 5.10; in assay [4] (Homo sapiens, SW480, 48 h), 4.79; in assay [5] (Homo sapiens, MCF7, 48 h), 4.90.
Take `Cc1n(Cc2c3c(cc4c2OCC4)OCC3)c2ccccc2[n+]1Cc1ccc2ccccc2c1`: the pIC50 in assay [1] (Homo sapiens, HL-60, 48 h) was 5.75; in assay [2] (Homo sapiens, SMMC-7721, 48 h), 5.26; in assay [3] (Homo sapiens, A549, 48 h), 5.04; in assay [4] (Homo sapiens, SW480, 48 h), 5.39; in assay [5] (Homo sapiens, MCF7, 48 h), 5.47.
The like results for `Cc1ccc(C[n+]2cn(Cc3c4c(cc5c3OCC5)OCC4)c3ccccc32)cc1` were, in that order, less than 4.70, less than 4.70, less than 4.70, less than 4.70 and less than 4.70.
